Results on 16 molecules are retold here after patent publication US20250163038A1, “CBL-B MODULATORS AND USES THEREOF” (Nimbus Clio, Inc., priority 2021, published 2025).

Where two headings read alike, the source gives them in different places.

Test [1] deals with Recombinant human Cbl-b (aa 36-427) (Homo sapiens, UniProt Q13191). As to the kind of experiment: Cbl-b Biochemical Assay (TR-FRET). The conditions noted are these: read-out: TR-FRET hCbl-b IC50.
Test [2] relates to Jurkat (clone E6-1) cells with NFAT luciferase reporter. The test can be described thus: Jurkat reporter assay (NFAT Luciferase). It counts as cell-based. Particulars: Homo sapiens. For orientation: Reporter assays use an easily measured gene product as a stand-in for the process of interest.
In test [3] the target is T1, Recombinant human c-Cbl (aa 47-435) (Homo sapiens, UniProt P22681).
T1 sequence (P22681 47-435): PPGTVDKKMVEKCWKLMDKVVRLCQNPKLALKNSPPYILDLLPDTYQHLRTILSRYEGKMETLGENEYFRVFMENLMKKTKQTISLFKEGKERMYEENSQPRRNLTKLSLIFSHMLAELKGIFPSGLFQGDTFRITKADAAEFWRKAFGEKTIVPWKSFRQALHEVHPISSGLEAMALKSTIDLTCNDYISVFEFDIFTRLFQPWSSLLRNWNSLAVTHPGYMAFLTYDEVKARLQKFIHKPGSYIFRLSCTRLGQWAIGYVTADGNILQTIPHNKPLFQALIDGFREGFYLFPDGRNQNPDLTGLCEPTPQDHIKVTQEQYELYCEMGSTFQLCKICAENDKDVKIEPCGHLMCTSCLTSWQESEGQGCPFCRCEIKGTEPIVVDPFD
As to the kind of experiment: c-Cbl Biochemical Assay (TR-FRET). The conditions noted are these: hc-Cbl Biochemical Assay (TR-FRET); read-out: TR-FRET hcCbl IC50. In general terms: Time-resolved FRET reads energy transfer from a long-lived donor to a nearby acceptor.

The mark [4] stands for this setting: Jurkat NFAT luciferase reporter cells, anti-CD3 stimulation, 6 hr, read-out: Jurkat NFAT EC50.

Recombinant human Cbl-b (aa 36-427), sequence (Q13191 36-427): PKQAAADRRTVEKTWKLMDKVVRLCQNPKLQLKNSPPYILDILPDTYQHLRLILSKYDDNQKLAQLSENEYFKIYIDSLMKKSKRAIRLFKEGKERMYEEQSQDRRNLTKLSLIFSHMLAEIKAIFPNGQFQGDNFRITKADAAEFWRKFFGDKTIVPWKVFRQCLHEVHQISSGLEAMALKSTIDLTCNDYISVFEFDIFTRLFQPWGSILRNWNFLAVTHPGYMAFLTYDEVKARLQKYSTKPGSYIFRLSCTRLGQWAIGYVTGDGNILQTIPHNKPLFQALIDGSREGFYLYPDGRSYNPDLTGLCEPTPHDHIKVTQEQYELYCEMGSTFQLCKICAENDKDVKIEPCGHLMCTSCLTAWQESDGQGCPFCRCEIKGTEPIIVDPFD

Regarding `Cn1cnnc1-c1cc(F)ccc1-c1cccc(-c2nc3cc(CNCC(C)(C)F)cc(C(F)(F)F)c3o2)c1` [DA-1, 2-Fluoro-N-((2-(4′-fluoro-2′-(4-methyl-4H-1,2,4-triazol-3-yl)-[1,1′-biphenyl]-3-yl)-7-(trifluoromethyl)benzo[d]oxazol-5-yl)methyl)-2-methylpropan-1-amine], the IC50 in test [1] and in test [3] was less than 200 nM throughout. Moreover, in test [2] (setting [4]), the EC50 was less than 0.2 µM.

Take `Cn1cnnc1-c1cc(F)ccc1-c1cc(-c2nc3cc(CNC(C)(C)C4CCC4)c(F)c(F)c3o2)nc(C2CC2)c1` [AGD-1, (2-Cyclobutylpropan-2-yl)[(2-{6-cyclopropyl-4-[4-fluoro-2-(4-methyl-1,2,4-triazol-3-yl)phenyl]pyridin-2-yl}-6,7-difluoro-1,3-benzoxazol-5-yl)methyl]amine]: the IC50 in test [1] is less than 200 nM; in test [3], 200 to 1000 nM. In addition, the EC50 in test [2] (setting [4]) is 1 to 10 µM.

For `Cn1cnnc1-c1cc(F)ccc1-c1cccc(-c2nc3cc(CN4CCCC[C@@H]4CO)cc(C(F)(F)F)c3o2)c1` [IV-2, (R)-(1-((2-(4′-Fluoro-2′-(4-methyl-4H-1,2,4-triazol-3-yl)-[1,1′-biphenyl]-3-yl)-7-(trifluoromethyl)benzo[d]oxazol-5-yl)methyl)piperidin-2-yl)methanol], the IC50 in test [1] is less than 200 nM; in test [3], 200 to 1000 nM. Besides, the EC50 in test [2] (setting [4]) is 0.2 to 1 µM.

`C[C@H]1CCCN(Cc2cc(C(F)(F)F)c3oc(-c4cc(-c5ccccc5-c5nncn5C)cc(C5CC5)n4)nc3c2)C1` [AAP-7, 2-{6-Cyclopropyl-4-[2-(4-methyl-1,2,4-triazol-3-yl)phenyl]pyridin-2-yl}-5-{[(3S)-3-methylpiperidin-1-yl]methyl}-7-(trifluoromethyl)-1,3-benzoxazole]: the IC50 was less than 200 nM in test [1] and 1000 to 10000 nM in test [3]. The EC50 in test [2] (Jurkat, 6 h, read-out: Jurkat NFAT EC50 (μM)) was in the range of 0.2 to 1 µM.

Consider `C[C@@H]1CN(Cc2cc(C(F)(F)F)c3oc(-c4cccc(-c5ccc(F)cc5-c5nncn5C)c4)nc3c2)CCO1` [Example V-1, (R)-2-(4′-Fluoro-2′-(4-methyl-4H-1,2,4-triazol-3-yl)-[1,1′-biphenyl]-3-yl)-5-((2-methylmorpholino)methyl)-7-(trifluoromethyl)benzo[d]oxazole], for which the results for the IC50 in test [1] and in test [3] were less than 200 nM and 1000 to 10000 nM, respectively. Moreover, the EC50 in test [2] (setting [4]) lay in the range of 1 to 10 µM.

As to `Cn1cnnc1-c1cc(F)ccc1-c1cccc(-c2nc3cc(CNCC(C)(C)O)cc(F)c3o2)c1` [JN-1, 1-(((7-Fluoro-2-(4′-fluoro-2′-(4-methyl-4H-1,2,4-triazol-3-yl)-[1,1′-biphenyl]-3-yl)benzo[d]oxazol-5-yl)methyl)amino)-2-methylpropan-2-ol], the IC50 in test [1] and in test [3] was less than 200 nM throughout. For the same molecule, in test [2] (setting [4]), the EC50 was less than 0.2 µM.

With `[2H]C([2H])(N[C@@H]1CCC[C@@H]1O)c1cc(C(F)(F)F)c2oc(-c3cccc(-c4ccc(F)cc4-c4nncn4C)c3)nc2c1` [HA-3, (1S,2R)-2-(((2-(4′-Fluoro-2′-(4-methyl-4H-1,2,4-triazol-3-yl)-[1,1′-biphenyl]-3-yl)-7-(trifluoromethyl)benzo[d]oxazol-5-yl)methyl-d2)amino)cyclopentan-1-ol], the IC50 in test [1] and in test [3] was less than 200 nM throughout. Also, in test [2] (setting [4]), the concentration giving a half-maximal response (EC50) was less than 0.2 µM.

`Cn1cnnc1-c1cc(F)ccc1-c1cccc(-c2nc3cc(CN4CC(C)(O)C4)cc(C(F)(F)F)c3o2)c1` [AF-2, 1-((2-(4′-Fluoro-2′-(4-methyl-4H-1,2,4-triazol-3-yl)-[1,1′-biphenyl]-3-yl)-7-(trifluoromethyl)benzo[d]oxazol-5-yl)methyl)-3-methylazetidin-3-ol]: the IC50 in test [1] was less than 200 nM; in test [3], 1000 to 10000 nM. Moreover, in test [2] (setting [4]), the EC50 was 0.2 to 1 µM.

`Cc1cc(CNCC(C)(C)O)cc2nc(-c3cccc(-c4ccc(F)cc4-c4nncn4C)c3)oc12` [IK-1, 1-(((2-(4′-Fluoro-2′-(4-methyl-4H-1,2,4-triazol-3-yl)-[1,1′-biphenyl]-3-yl)-7-methylbenzo[d]oxazol-5-yl)methyl)amino)-2-methylpropan-2-ol]: the half-maximal inhibitory concentration (IC50) in test [1] and in test [3] was less than 200 nM each time. In addition, the EC50 in test [2] (setting [4]) was less than 0.2 µM.

Regarding `Cn1cnnc1-c1cc(F)ccc1-c1cc(-c2nc3cc(CNCC4CCC4)cc(F)c3o2)nc(C2CC2)c1` [AGT-1, (Cyclobutylmethyl)[(2-{6-cyclopropyl-4-[4-fluoro-2-(4-methyl-1,2,4-triazol-3-yl)phenyl]pyridin-2-yl}-7-fluoro-1,3-benzoxazol-5-yl)methyl]amine], the IC50 in test [1] and in test [3] was less than 200 nM each time. Further, the EC50 in test [2] (setting [4]) was less than 0.2 µM.

Consider `C[C@H]1CCCN(Cc2cc(C(F)(F)F)c3[nH]c(-c4cccc(-c5ccc(F)cc5-c5nncn5C)c4)nc3c2)C1` [BO-2, (S)-2-(4′-Fluoro-2′-(4-methyl-4H-1,2,4-triazol-3-yl)-[1,1′-biphenyl]-3-yl)-5-((3-methylpiperidin-1-yl)methyl)-7-(trifluoromethyl)-1H-benzo[d]imidazole], for which the values for the IC50 in test [1] and in test [3] were less than 200 nM and 1000 to 10000 nM, respectively. For the same molecule, in test [2] (setting [4]), the EC50 was in the range of 0.2 to 1 µM.

Consider `Cn1cnnc1-c1cc(F)ccc1-c1cccc(-c2nc3cc(CNCC4(O)CCC4)cc(C(F)(F)F)c3o2)c1` [Example Y-3, 1-((((2-(4′-Fluoro-2′-(4-methyl-4H-1,2,4-triazol-3-yl)-[1,1′-biphenyl]-3-yl)-7-(trifluoromethyl)benzo[d]oxazol-5-yl)methyl)amino)methyl)cyclobutan-1-ol], for which the IC50 is less than 200 nM in test [1] and 1000 to 10000 nM in test [3]. Moreover, in test [2] (setting [4]), the EC50 fell in the range of 0.2 to 1 µM.

As for `Cn1cnnc1-c1cc(F)ccc1-c1cccc(-c2nc3cc(CNCC4COC4)c(F)c(F)c3o2)c1` [JE-1, 1-(6,7-Difluoro-2-(4′-fluoro-2′-(4-methyl-4H-1,2,4-triazol-3-yl)-[1,1′-biphenyl]-3-yl)benzo[d]oxazol-5-yl)-N-(oxetan-3-ylmethyl)methanamine], the 50% inhibitory concentration (IC50) in test [1] is less than 200 nM; in test [3], 200 to 1000 nM. For the same molecule, in test [2] (setting [4]), the EC50 is less than 0.2 µM.

On to `Cn1cnnc1-c1cc(Cl)ccc1-c1cccc(-c2nc3cc(CN[C@@H]4CCC[C@@H]4O)cc(C(F)(F)F)c3[nH]2)c1` [ADB-9, (1S,2R)-2-(((2-(4′-Chloro-2′-(4-methyl-4H-1,2,4-triazol-3-yl)-[1,1′-biphenyl]-3-yl)-7-(trifluoromethyl)-1H-benzo[d]imidazol-5-yl)methyl)amino)cyclopentan-1-ol], for which the IC50 in test [1] and in test [3] was less than 200 nM each time. Moreover, in test [2] (setting [4]), the EC50 was less than 0.2 µM.

Consider `C[C@H]1CCCN(Cc2cc(C(F)(F)F)c3oc(-c4cccc(-c5ccc(F)cc5-c5nncn5C)c4)nc3c2)C1` [Example U-1, (S)-2-(4′-Fluoro-2′-(4-methyl-4H-1,2,4-triazol-3-yl)-[1,1′-biphenyl]-3-yl)-5-((3-methylpiperidin-1-yl)methyl)-7-(trifluoromethyl)benzo[d]oxazole], for which the values for the IC50 in test [1] and in test [3] were less than 200 nM and 1000 to 10000 nM, respectively. The EC50 in test [2] (setting [4]) lay in the range of 0.2 to 1 µM.

For `Cn1cnnc1-c1cc(F)ccc1-c1cc(-c2nc3cc(CNCC(C)(C)O)cc(F)c3o2)cc(C2CC2)c1` [JQ-1, 1-(((2-(5-Cyclopropyl-4′-fluoro-2′-(4-methyl-4H-1,2,4-triazol-3-yl)-[1,1′-biphenyl]-3-yl)-7-fluorobenzo[d]oxazol-5-yl)methyl)amino)-2-methylpropan-2-ol], the IC50 in test [1] and in test [3] was less than 200 nM throughout. Besides, the EC50 in test [2] (setting [4]) is less than 0.2 µM.

For orientation: IC50 means the concentration needed to halve the response being measured. The term EC50 denotes the concentration that produces a half-maximal response.
